In patent US20120115774A1, “ANTIMICROBIAL CATIONIC LIPO-BETA-PEPTIDES” (UNIVERSITY OF MANITOBA, priority 2009, published 2012):
≈ marks a conversion by molar mass, not a printed value. Like-named read-outs stand apart in the source and are kept apart here.

Tests used:
S. aureus ATCC 29213 = assay type: cell-based, Staphylococcus aureus
Procedure: (§1) Antibacterial activity against Gram positive and Gram negative microorganisms was investigated via broth macrodilution tests using CLSI methodology (Zhanel et al., 2008). Stock solutions of lipopeptide antibiotics in water were brought to a standard 512 μg/mL, with only βC12-KLLK and βC16-KAAK requiring a minute amount of DMSO. Organisms were subcultured and isolated on blood agar, suspended in 3 mL of Mueller-Hinton broth at the turbidity of a […], and diluted to approximately 10^5 CFU/mL before introduction into tubes containing serially diluted lipopeptide antibiotic in Mueller-Hinton broth. Activity testing against S. pneumoniae used broth supplemented with laked horse blood to give 5% horse blood in experimental tubes. The turbidity resulting from lipopeptide solution in broth required the creation of control tubes lacking microbes serving as turbidity controls. All tubes were incubated overnight for 16-20 h at 37° C. Colony counts of diluted 10^5 CFU/mL solution of microorganism confirmed the validity of the trial with colony counts expected in the 10^5 CFU/mL range and also incubated overnight in a CO2 incubator at 37° C. and 5% CO2.

[1] = system: S. epidermidis ATCC 14990; assay type: cell-based, Staphylococcus epidermidis
Procedure: as §1

[2] = system: E. coli (Amikacin MIC 32 μg/mL) CAN-ICU 63074; assay type: cell-based
Procedure: as §1

[3] = system: E. coli (Gentamicin resistant-Gent R) CAN-ICU 61714; assay type: cell-based
Procedure: as §1

E. coli ATCC 25922 = assay type: cell-based
Procedure: as §1

[4] = system: methicillin-resistant Staphylococcus aureus (MRSA) ATCC 33592; assay type: cell-based
Procedure: as §1

[5] = system: methicillin-resistant Staphylococcus epidermidis (MRSE) CAN-ICU 61589; assay type: cell-based
Procedure: as §1

E. faecalis ATCC 29212 = assay type: cell-based, Enterococcus faecalis
Procedure: as §1

E. faecium ATCC 27270 = assay type: cell-based, Enterococcus faecium
Procedure: as §1

S. pneumoniae ATCC 49619 = assay type: cell-based, Streptococcus pneumoniae
Procedure: as §1

[6] = system: P. aeruginosa (Gent-R) CAN-ICU 62308; assay type: cell-based, Pseudomonas aeruginosa
Procedure: as §1

P. aeruginosa ATCC 27853 = assay type: cell-based, Pseudomonas aeruginosa
Procedure: as §1

[7] = system: S. maltophilia CAN-ICU 62584; assay type: cell-based, Stenotrophomonas maltophilia
Procedure: as §1

[8] = system: A. baumannii CAN-ICU 63169; assay type: cell-based, Acinetobacter baumannii
Procedure: as §1

[9] = system: methicillin-resistant Staphylococcus epidermidis (MRSE) CAN-ICU 61589; conditions: strain description, clinical isolate of CAN-ICU study; cited from earlier work
K. pneumoniae ATCC 13883 = assay type: cell-based, Klebsiella pneumoniae; conditions: Mueller-Hinton broth, 16-20 h at 37° C.
Procedure: as §1

[10] = system: E. coli (Amikacin MIC 32 μg/mL) CAN-ICU 63074; conditions: strain description, clinical isolate of CAN-ICU study; cited from earlier work
[11] = Amikacin MIC 32 μg/mL) CAN-ICU 63074
[12] = Gentamicin resistant-Gent R) CAN-ICU 61714
[13] = methicillin-resistant CAN-ICU 61589
[14] = Mueller-Hinton broth, 16-20 h at 37° C.

Row | Compound | MIC, S. aureus ATCC29213 (S. aureus ATCC 29213; ATCC 29213) [µg/mL] | MIC, S. epidermidis ATCC14990 ([1]; ATCC 14990) [µg/mL] | MIC, E. coli CAN-ICU 63074 [2, 11] [µg/mL] | MIC, E. coli CAN-ICU 61714 [3, 12] [µg/mL] | MIC, E. coli ATCC25922 (E. coli ATCC 25922; ATCC 25922) [µg/mL] | MIC, MRSA ATCC33592 ([4]; ATCC 33592) [µg/mL] | MIC, MRSE CAN-ICU 61589 [5, 13] [µg/mL] | MIC, E. faecalis ATCC29212 (E. faecalis ATCC 29212) [µg/mL] | MIC, E. facium ATCC27270 (E. faecium ATCC 27270) [µg/mL] | MIC, S. pneumoniae ATCC49619 (S. pneumoniae ATCC 49619; ATCC 49619) [µg/mL] | MIC, P. aeruginosa CAN-ICU 62308 ([6]; Gent-R) CAN-ICU 62308) [µg/mL] | MIC, P. aeruginosa ATCC27853 (P. aeruginosa ATCC 27853; ATCC 27853) [µg/mL] | MIC, S. maltophilia CAN-ICU 62584 ([7]; CAN-ICU 62584) [µg/mL] | MIC, A. baumannii CAN-ICU 63169 ([8]; CAN-ICU 63169) [µg/mL] | also measured
1 | CCCCCCCCCCCC(=O)N[C@@H](CCCCN)CC(=O)N[C@H](CC(=O)N[C@H](CC(=O)N[C@@H](CCCCN)CC(N)=O)CC(C)C)CC(C)C [(β)C12-KLLK] | 32 (≈ 43.4 µM) | 16 (≈ 21.7 µM) | 64 (≈ 86.7 µM) | 64 (≈ 86.7 µM) | 64 (≈ 86.7 µM) | 32 (≈ 43.4 µM) | 32 (≈ 43.4 µM) | 64 (≈ 86.7 µM) | 32 (≈ 43.4 µM) | 128 (≈ 173 µM) | 128 (≈ 173 µM) | 128 (≈ 173 µM) | 256 (≈ 347 µM) | >128 | –
2 | Cc1nnc(SCC2=C(C(=O)O)N3C(=O)[C@@H](NC(=O)Cn4cnnn4)[C@H]3SC2)s1 [Cefazolin] | – | – | – | – | – | – | – | – | – | – | – | – | – | – | Cefazolin-CZ MIC of MRSE CAN-ICU 61589 [9]: > 32 µg/mL
3 | CCCCCCCCCCCCCCCC(=O)N[C@@H](CCCCN)CC(=O)N[C@@H](C)CC(=O)N[C@@H](C)CC(=O)N[C@@H](CCCCN)CC(N)=O [(β)C16-KAAK] | 64 (≈ 90.1 µM) | 8 (≈ 11.3 µM) | 64 (≈ 90.1 µM) | 64 (≈ 90.1 µM) | 64 (≈ 90.1 µM) | 32 (≈ 45.1 µM) | 16 (≈ 22.5 µM) | 32 (≈ 45.1 µM) | 32 (≈ 45.1 µM) | >64 | 128 (≈ 180 µM) | 256 (≈ 361 µM) | >128 | 256 (≈ 361 µM) | –
4 | CCCCCCCCCCCCCCCC(=O)N[C@@H](CCCCN)CC(=O)N[C@@H](CCCCN)CC(=O)N[C@@H](CCCCN)CC(=O)N[C@@H](CCCCN)CC(N)=O [(β)C16-KKKK] | 16 (≈ 19.4 µM) | 4 (≈ 4.85 µM) | 32 (≈ 38.8 µM) | 32 (≈ 38.8 µM) | 16 (≈ 19.4 µM) | 16 (≈ 19.4 µM) | 4 (≈ 4.85 µM) | 32 (≈ 38.8 µM) | 16 (≈ 19.4 µM) | 128 (≈ 155 µM) | 128 (≈ 155 µM) | 64 (≈ 77.6 µM) | 256 (≈ 311 µM) | 256 (≈ 311 µM) | –
5 | Gentamicin [reference compound] | – | – | – | – | – | – | – | – | – | – | – | – | – | – | MIC, S. aureus ATCC29213 (S. aureus ATCC 29213; [14]): 1 µg/mL; MIC, S. epidermidis ATCC14990 [1, 14]: 0.25 µg/mL; MIC, E. coli CAN-ICU 63074 [2, 14]: 8 µg/mL; MIC, E. coli CAN-ICU 61714 ([3]; Gentamicin resistant strain, Mueller-Hinton broth, 16-20 h at 37° C.): 128 µg/mL; MIC, E. coli ATCC25922 (E. coli ATCC 25922; [14]): 1 µg/mL; MIC, MRSA ATCC33592 [4, 14]: 2 µg/mL; MIC, MRSE CAN-ICU 61589 [5, 14]: 32 µg/mL; MIC, S. pneumoniae ATCC49619 (S. pneumoniae ATCC 49619; broth supplemented with laked horse blood (5% horse blood), 16-20 h at 37° C.): 4 µg/mL; MIC, P. aeruginosa CAN-ICU 62308 ([6]; Gent-R strain, Mueller-Hinton broth, 16-20 h at 37° C.): 128 µg/mL; MIC, P. aeruginosa ATCC27853 (P. aeruginosa ATCC 27853; [14]): 8 µg/mL; MIC, S. maltophilia CAN-ICU 62584 [7, 14]: >512 µg/mL; MIC, A. baumannii CAN-ICU 63169 [8, 14]: 128 µg/mL; MIC, S. pneumoniae ATCC13883 (K. pneumoniae ATCC 13883): 0.25 µg/mL
6 | NCC[C@H](O)C(=O)N[C@@H]1C[C@H](N)[C@@H](O[C@H]2O[C@H](CN)[C@@H](O)[C@H](O)[C@H]2O)[C@H](O)[C@H]1O[C@H]1O[C@H](CO)[C@@H](O)[C@H](N)[C@H]1O [Amikacin] | – | – | – | – | – | – | – | – | – | – | – | – | – | – | Amikacin MIC of E. coli CAN-ICU 63074 [10]: 32 µg/mL
7 | CCCCCCCCCCCCCCCC(=O)N[C@@H](CCCCN)CC(=O)NCCC(=O)NCCC(=O)N[C@@H](CCCCN)CC(N)=O [(β)C16-KGGK] | 16 (≈ 23.5 µM) | 8 (≈ 11.7 µM) | 32 (≈ 46.9 µM) | 32 (≈ 46.9 µM) | 32 (≈ 46.9 µM) | 32 (≈ 46.9 µM) | 16 (≈ 23.5 µM) | 32 (≈ 46.9 µM) | 32 (≈ 46.9 µM) | 128 (≈ 188 µM) | >64 | 64 (≈ 93.8 µM) | 256 (≈ 375 µM) | 128 (≈ 188 µM) | –
